Assay results reported in patent US11865098B1, “Methods and compositions for treating excessive sleepiness” (Axsome Malta Ltd., priority 2017, dated 2024).

Legend:
[1] = tested on: adult patients with OSA and ES; assay: FOSQ-10, 12-week parallel study in OSA; format: in vivo, human
Method: (§1) The study was a 12-week, double-blind, placebo-controlled, parallel design study as described in greater detail in Example 1 (Schweitzer et al., Sleep 40(Abstract Supplement):A237. Abstract 0641 (2017)). Patients were randomized (1:1:2:2:2) to APC 37.5, 75, 150, 300 mg, or placebo for 12 weeks, and were stratified by adherence or non-adherence with primary OSA therapy (adherent definition was use for ≥4 hours per night on >70% of nights). Two patient-reported measures were included as secondary efficacy outcomes to evaluate the effects of APC on functional status and work productivity and activity impairment at baseline and weeks 1, 4, 8, and 12. The Functional Outcomes of Sleep questionnaire short version (FOSQ-10) (Chasens et al., Sleep 32(7):915 (2009)) evaluated the effects of ES on functioning. The Work Productivity and Activity Impairment questionnaire for Specific Health Problems (WPAI:SHP) (Reilly et al., Pharmacoeconomics 4(5):353 (1993); Reilly, Work Productivity and Activity Impairment Questionnaire: Specific Health Problem V2.0 (WPAI: SHP). www.reillyassociates.net/WPAI_SHP) evaluated work productivity impairment among employed patients and overall activity impairment outside of work among all patients for the past 7 days. Four outcomes are available from the WPAI:SHP: Absenteeism (percent work time missed due to health); Presenteeism (percent impairment while working due to health); Percent overall work impairment (calculated from absenteeism and presenteeism); and Percent activity impairment due to health. The FOSQ-10 was evaluated as change over time compared with placebo (least squares (LS) mean); the 4 WPAI outcomes were evaluated at week 12 compared to placebo. Efficacy analyses were based on the modified intent-to-treat population (mITT) and there was no multiplicity adjustment for the FOSQ-10 or WPAI:SHP. Safety and tolerability were assessed based on treatment-emergent adverse events (TEAEs), vital signs, electrocardiogram test, physical exams, Columbia-Suicide Severity Rating Scale, and laboratory tests in the safety population.

[2] = tested on: adult patients with OSA and ES; assay: MWT, 12-week placebo-controlled parallel study in OSA; format: in vivo, human; conditions: for MWT mean sleep latency increase from baseline >=5 minutes, subjects / MWT mean sleep latency increase from baseline >=10 minutes, subjects / MWT mean sleep latency increase from baseline >=15 minutes, subjects / MWT mean sleep latency increase from baseline >=20 minutes, subjects / MWT mean sleep latency increase from baseline >=25 minutes, subjects / MWT mean sleep latency increase from baseline >=30 minutes, subjects: mITT
Method: The MWT is an objective test used to measure how alert a subject is during the day. The test consists of four sleep trials with two hours in between the trials. The first trial is performed 1.5-3 hours after the subject's normal wake-up time. Sensors are placed on the head, face, and chin to detect when the subject is asleep and awake during the test. The subject sits quietly in bed with his or her back and head supported by a pillow and is asked to sit still and look straight ahead while trying to stay awake as long as possible. Each trial lasts 40 minutes or until the subject is asleep for 90 seconds. Between trials, the subject stays out of bed and occupies himself or herself to remain awake. Falling asleep in an average of less than eight minutes is considered abnormal. About 40-60% of subjects with normal sleep stay awake for the entire 40 minutes of all four trials.
as §1
This was a 12-week, double-blind, placebo-controlled, parallel-design study. Patients were randomized (1:1:2:2:2) to APC 37.5 mg, 75 mg, 150 mg, or 300 mg, or placebo for 12 weeks, and were stratified by adherence or nonadherence with primary OSA therapy.

NC(=O)OC[C@H](N)Cc1ccccc1 [JZP-110, (R)-2-amino-3-phenylpropyl carbamate]
FOSQ-10 scores at week 12 ([1]; 37.5 to 300 mg, mITT): dose dependently increased FOSQ-10 scores
FOSQ-10, time at which improvements were observed ([1]; 150 and 300 mg doses): as early as week 1
FOSQ-10 scores at week 12, effect relative to placebo ([1]; 150 and 300 mg doses): statistically significant effects
Co-primary MWT endpoint ([2]; 37.5, 75, 150, 300 mg, week 12): met at all doses
MWT mean sleep latency increase from baseline >=5 minutes, subjects ([2]; Week 1, 37.5 mg): 4 (22.2) n (%)
MWT mean sleep latency increase from baseline >=10 minutes, subjects ([2]; Week 1, 37.5 mg): 2 (11.1) n (%)
MWT mean sleep latency increase from baseline >=15 minutes, subjects ([2]; Week 1, 37.5 mg): 2 (11.1) n (%)
MWT mean sleep latency increase from baseline >=20 minutes, subjects ([2]; Week 1, 37.5 mg): 2 (11.1) n (%)
MWT mean sleep latency increase from baseline >=25 minutes, subjects ([2]; Week 1, 37.5 mg): 0 n (%)
MWT mean sleep latency increase from baseline >=30 minutes, subjects ([2]; Week 1, 37.5 mg): 0 n (%)
MWT mean sleep latency increase from baseline >=5 minutes, subjects ([2]; Week 1, 75 mg): 11 (64.7) n (%)
MWT mean sleep latency increase from baseline >=10 minutes, subjects ([2]; Week 1, 75 mg): 6 (35.3) n (%)
MWT mean sleep latency increase from baseline >=15 minutes, subjects ([2]; Week 1, 75 mg): 4 (23.5) n (%)
MWT mean sleep latency increase from baseline >=20 minutes, subjects ([2]; Week 1, 75 mg): 1 (5.9) n (%)
MWT mean sleep latency increase from baseline >=25 minutes, subjects ([2]; Week 1, 75 mg): 1 (5.9) n (%)
MWT mean sleep latency increase from baseline >=30 minutes, subjects ([2]; Week 1, 75 mg): 0 n (%)
MWT mean sleep latency increase from baseline >=5 minutes, subjects ([2]; Week 1, 150 mg): 27 (81.8) n (%)
MWT mean sleep latency increase from baseline >=10 minutes, subjects ([2]; Week 1, 150 mg): 22 (66.7) n (%)
MWT mean sleep latency increase from baseline >=15 minutes, subjects ([2]; Week 1, 150 mg): 13 (39.4) n (%)
MWT mean sleep latency increase from baseline >=20 minutes, subjects ([2]; Week 1, 150 mg): 9 (27.3) n (%)
MWT mean sleep latency increase from baseline >=25 minutes, subjects ([2]; Week 1, 150 mg): 4 (12.1) n (%)
MWT mean sleep latency increase from baseline >=30 minutes, subjects ([2]; Week 1, 150 mg): 2 (6.1) n (%)
MWT mean sleep latency increase from baseline >=5 minutes, subjects ([2]; Week 1, 300 mg): 28 (75.7) n (%)
MWT mean sleep latency increase from baseline >=10 minutes, subjects ([2]; Week 1, 300 mg): 22 (59.5) n (%)
MWT mean sleep latency increase from baseline >=15 minutes, subjects ([2]; Week 1, 300 mg): 19 (51.4) n (%)
MWT mean sleep latency increase from baseline >=20 minutes, subjects ([2]; Week 1, 300 mg): 14 (37.8) n (%)
MWT mean sleep latency increase from baseline >=25 minutes, subjects ([2]; Week 1, 300 mg): 7 (18.9) n (%)
MWT mean sleep latency increase from baseline >=30 minutes, subjects ([2]; Week 1, 300 mg): 4 (10.8) n (%)
MWT mean sleep latency increase from baseline >=5 minutes, subjects ([2]; Week 1, Combined JZP-110 doses): 70 (66.7) n (%)
MWT mean sleep latency increase from baseline >=10 minutes, subjects ([2]; Week 1, Combined JZP-110 doses): 52 (49.5) n (%)
MWT mean sleep latency increase from baseline >=15 minutes, subjects ([2]; Week 1, Combined JZP-110 doses): 38 (36.2) n (%)
MWT mean sleep latency increase from baseline >=20 minutes, subjects ([2]; Week 1, Combined JZP-110 doses): 26 (24.8) n (%)
MWT mean sleep latency increase from baseline >=25 minutes, subjects ([2]; Week 1, Combined JZP-110 doses): 12 (11.4) n (%)
MWT mean sleep latency increase from baseline >=30 minutes, subjects ([2]; Week 1, Combined JZP-110 doses): 6 (5.7) n (%)
MWT mean sleep latency increase from baseline >=5 minutes, subjects ([2]; Week 4, 37.5 mg): 21 (42.0) n (%)
MWT mean sleep latency increase from baseline >=10 minutes, subjects ([2]; Week 4, 37.5 mg): 16 (32.0) n (%)
MWT mean sleep latency increase from baseline >=15 minutes, subjects ([2]; Week 4, 37.5 mg): 7 (14.0) n (%)
MWT mean sleep latency increase from baseline >=20 minutes, subjects ([2]; Week 4, 37.5 mg): 4 (8.0) n (%)
MWT mean sleep latency increase from baseline >=25 minutes, subjects ([2]; Week 4, 37.5 mg): 0 n (%)
MWT mean sleep latency increase from baseline >=30 minutes, subjects ([2]; Week 4, 37.5 mg): 0 n (%)
MWT mean sleep latency increase from baseline >=5 minutes, subjects ([2]; Week 4, 75 mg): 34 (61.8) n (%)
MWT mean sleep latency increase from baseline >=10 minutes, subjects ([2]; Week 4, 75 mg): 25 (45.5) n (%)
MWT mean sleep latency increase from baseline >=15 minutes, subjects ([2]; Week 4, 75 mg): 11 (20.0) n (%)
MWT mean sleep latency increase from baseline >=20 minutes, subjects ([2]; Week 4, 75 mg): 5 (9.1) n (%)
MWT mean sleep latency increase from baseline >=25 minutes, subjects ([2]; Week 4, 75 mg): 2 (3.6) n (%)
MWT mean sleep latency increase from baseline >=30 minutes, subjects ([2]; Week 4, 75 mg): 1 (1.8) n (%)
MWT mean sleep latency increase from baseline >=5 minutes, subjects ([2]; Week 4, 150 mg): 83 (76.9) n (%)
